13 compounds from patent US11707503B2, “Modulators of complement activity” (Ra Pharmaceuticals, Inc., priority 2015, dated 2023) can be followed below.

Starred links: 1 amine or outer side, 2 acyl side, 3 side chain; linkers in the order of their positions; H or OH if unused. Positions of bridges follow the written chain, without caps; N, C: chain ends. Non-standard residues stand in square brackets, D forms with d. Residues, ends and D or L forms follow the SMILES beside them. Ala(1H-tetrazol-5-yl) = N[C@@H](Cc1nnn[nH]1)C(=O)O; Trp(7-aza) = N[C@@H](Cc1c[nH]c2ncccc12)C(=O)O; hPhe(3-Cl) = N[C@@H](CCc1cccc(Cl)c1)C(=O)O; 2Nal = N[C@@H](Cc1ccc2ccccc2c1)C(=O)O; mXylylene = c1cc(C[*:1])cc(C[*:2])c1; Chg = N[C@H](C(=O)O)C1CCCCC1; Tle = CC(C)(C)[C@H](N)C(=O)O; Ac5c = NC1(C(=O)O)CCCC1; Nva = CCC[C@H](N)C(=O)O; Thp = NC1(C(=O)O)CCOCC1

The target in the first test is C5 (Homo sapiens, UniProt P01031). The experiment in a line: Alternative human hemolysis assay using C5 depleted sera and purified human C5. Format: cell-based. Details: purchased Complement Technology, Tyler, Tex. To be noted: 1.5% human C5 depleted sera, 0.5 nM purified human C5.
C5, sequence (P01031 678-1676 limits assumed): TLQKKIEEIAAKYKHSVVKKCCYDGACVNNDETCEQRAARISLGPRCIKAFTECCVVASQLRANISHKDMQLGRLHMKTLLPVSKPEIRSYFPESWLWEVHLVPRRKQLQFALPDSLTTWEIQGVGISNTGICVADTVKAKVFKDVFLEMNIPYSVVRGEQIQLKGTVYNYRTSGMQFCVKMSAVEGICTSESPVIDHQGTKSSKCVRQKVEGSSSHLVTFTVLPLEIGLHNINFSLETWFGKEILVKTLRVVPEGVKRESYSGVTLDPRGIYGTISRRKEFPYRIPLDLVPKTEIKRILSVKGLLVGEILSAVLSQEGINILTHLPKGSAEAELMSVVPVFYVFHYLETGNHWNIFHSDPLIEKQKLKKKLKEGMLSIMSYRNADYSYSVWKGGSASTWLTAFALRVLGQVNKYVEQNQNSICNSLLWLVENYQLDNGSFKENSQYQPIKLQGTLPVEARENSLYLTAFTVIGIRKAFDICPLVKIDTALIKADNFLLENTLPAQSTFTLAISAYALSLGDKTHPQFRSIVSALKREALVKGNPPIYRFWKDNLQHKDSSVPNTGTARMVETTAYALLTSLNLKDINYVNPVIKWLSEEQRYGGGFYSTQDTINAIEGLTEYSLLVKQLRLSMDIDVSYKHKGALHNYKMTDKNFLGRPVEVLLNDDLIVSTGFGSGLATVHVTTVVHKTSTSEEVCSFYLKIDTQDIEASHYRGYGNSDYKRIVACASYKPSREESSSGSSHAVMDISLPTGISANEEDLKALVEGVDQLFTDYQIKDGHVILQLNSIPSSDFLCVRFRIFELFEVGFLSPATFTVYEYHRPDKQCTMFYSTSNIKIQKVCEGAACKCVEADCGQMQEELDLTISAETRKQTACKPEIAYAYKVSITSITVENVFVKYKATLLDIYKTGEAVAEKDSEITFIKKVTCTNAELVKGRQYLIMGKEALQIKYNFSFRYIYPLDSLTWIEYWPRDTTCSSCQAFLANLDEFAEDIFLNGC
C5, sequence (P01031 19-673 limits assumed): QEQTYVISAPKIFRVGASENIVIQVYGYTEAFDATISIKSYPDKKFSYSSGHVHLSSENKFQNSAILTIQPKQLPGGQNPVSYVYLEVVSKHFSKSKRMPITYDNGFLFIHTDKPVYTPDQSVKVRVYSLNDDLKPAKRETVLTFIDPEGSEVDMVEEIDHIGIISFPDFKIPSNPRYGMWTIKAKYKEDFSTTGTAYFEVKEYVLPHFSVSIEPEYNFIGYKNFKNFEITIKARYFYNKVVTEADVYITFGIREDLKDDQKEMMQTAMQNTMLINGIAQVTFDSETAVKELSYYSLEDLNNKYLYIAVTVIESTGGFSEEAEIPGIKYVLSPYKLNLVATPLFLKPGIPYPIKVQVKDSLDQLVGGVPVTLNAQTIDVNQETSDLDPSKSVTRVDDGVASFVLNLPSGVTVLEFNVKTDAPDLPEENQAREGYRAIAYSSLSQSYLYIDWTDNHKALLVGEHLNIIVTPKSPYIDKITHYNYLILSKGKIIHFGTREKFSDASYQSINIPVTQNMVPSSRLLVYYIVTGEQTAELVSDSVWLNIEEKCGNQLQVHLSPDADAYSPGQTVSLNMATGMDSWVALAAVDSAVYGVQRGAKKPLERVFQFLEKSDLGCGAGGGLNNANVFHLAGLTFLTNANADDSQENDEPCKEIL
Regarding `CCC[C@H](NC(=O)[C@@H](NC(=O)[C@@H]1CCCN1C(=O)[C@H](Cc1c[nH]c2ccccc12)NC(=O)[C@H](CCC(=O)O)NC(=O)[C@H](Cc1c[nH]c2ncccc12)NC(=O)[C@H](Cc1ccc(O)cc1)NC(=O)[C@@H](NC(=O)[C@H](CC(=O)O)NC(=O)[C@@H]1CSCc2cccc(c2)CSC[C@H](NC(C)=O)C(=O)N[C@@H](C(C)C)C(=O)N[C@@H](CCC(=O)O)C(=O)N[C@@H](CCCNC(=N)N)C(=O)N[C@@H](Cc2ccccc2)C(=O)N1)C(C)(C)C)C1CCCCC1)C(=O)O` [Compound R3177, [mXylyl(1,6)]Ac-C-V-E-R-F-C-D-Tbg-Y-azaTrp-E-W-P-Chg-Nvl] (Ac-CVERFCD[Tle]Y[Trp(7-aza)]EWP[Chg][Nva]-OH; linker 1-6 via mXylylene), inhibition was half-maximal at 12 nM (IC50).

Still in this test, the particulars now being: […] human C5 depleted sera, 0.5 nM purified human C5.
On to `CCCCCCCCCCCCCCCC(=O)NCCCC[C@H](NC(=O)[C@@H](NC(=O)[C@@H]1CCCN1C(=O)[C@H](Cc1ccc(O)cc1)NC(=O)[C@H](CCC(=O)O)NC(=O)[C@H](Cc1c[nH]c2ccccc12)NC(=O)[C@H](Cc1ccc(O)cc1)NC(=O)[C@@H](NC(=O)[C@H](CC(=O)O)N(C)C(=O)[C@@H]1CC(=O)NCCCC[C@H](NC(C)=O)C(=O)N[C@@H](C(C)C)C(=O)N[C@@H](CCC(=O)O)C(=O)N[C@@H](CCCNC(=N)N)C(=O)N[C@@H](Cc2ccccc2)C(=O)N1)C(C)(C)C)C1CCCCC1)C(=O)O` [Compound R3195, [cyclo(1,6)]Ac-K-V-E-R-F-D-(N—Me)D-Tbg-Y-W-E-Y-P-Chg-(Lys-C16)], for which the IC50 (in general, the concentration that gives 50% inhibition) was determined as 62.5 nM. On the same count and under the same terms, the result for `CCC[C@H](NC(=O)[C@@H](NC(=O)[C@@H]1CCCN1C(=O)[C@H](Cc1ccc(O)cc1)NC(=O)[C@H](CCC(=O)O)NC(=O)[C@H](Cc1c[nH]c2ncccc12)NC(=O)[C@H](Cc1ccc(O)cc1)NC(=O)[C@@H](NC(=O)C1(NC(=O)[C@@H]2CSCc3cccc(c3)CSC[C@H](NC(C)=O)C(=O)N[C@@H](C(C)C)C(=O)N[C@@H](CCC(=O)O)C(=O)N[C@@H](CCCNC(=N)N)C(=O)N[C@@H](Cc3ccccc3)C(=O)N2)CCOCC1)C(C)(C)C)C1CCCCC1)C(=O)O` [Compound R3186, [mXylyl(1,6)]Ac-C-V-E-R-F-C-(Ac-Pyran)-Tbg-Y-azaTrp-E-Y-P-Chg-Nvl] (Ac-CVERFC[Thp][Tle]Y[Trp(7-aza)]EYP[Chg][Nva]-OH; linker 1-6 via mXylylene; C-terminus assumed) reads 18 nM; that for `CCC[C@H](NC(=O)[C@@H](NC(=O)[C@@H]1CCCN1C(=O)[C@H](Cc1ccc(O)cc1)NC(=O)[C@H](CCC(=O)O)NC(=O)[C@H](Cc1c[nH]c2ncccc12)NC(=O)[C@H](Cc1ccc(O)cc1)NC(=O)[C@@H](NC(=O)[C@H](Cc1nnn[nH]1)NC(=O)[C@@H]1CC(=O)NCCCC[C@H](NC(C)=O)C(=O)N[C@@H](C(C)C)C(=O)N[C@@H](CCC(=O)O)C(=O)N[C@@H](CCCNC(=N)N)C(=O)N[C@@H](Cc2ccccc2)C(=O)N1)C(C)(C)C)C1CCCCC1)C(=O)O` [Compound R3174, [cyclo(1,6)]Ac-K-V-E-R-F-D-Asp(T)-Tbg-Y-azaTrp-E-Y-P-Chg-Nvl] (Ac-KVERFD[Ala(1H-tetrazol-5-yl)][Tle]Y[Trp(7-aza)]EYP[Chg][Nva]-OH; lactam 1-6; C-terminus assumed), 2.3 nM; that for `CCCCCCCCCCCCCCCC(=O)NCCCC[C@H](NC(=O)C(C)(C)NC(=O)[C@@H]1CCCN1C(=O)[C@H](Cc1ccc(O)cc1)NC(=O)[C@H](CCC(=O)O)NC(=O)[C@H](Cc1c[nH]c2ncccc12)NC(=O)[C@H](Cc1ccc(O)cc1)NC(=O)[C@@H](NC(=O)[C@H](CC(=O)O)N(C)C(=O)[C@@H]1CC(=O)NCCCC[C@H](NC(C)=O)C(=O)N[C@@H](C(C)C)C(=O)N[C@@H](CCC(=O)O)C(=O)N[C@@H](CCCNC(=N)N)C(=O)N[C@@H](Cc2ccccc2)C(=O)N1)C(C)(C)C)C(=O)O` [Compound R3200, [cyclo(1,6)]Ac-K-V-E-R-F-D-(N—Me)D-Tbg-Y-azaTrp-E-Y-P-Aib-(Lys-C16)], 88.5 nM. Still for that read-out and setting: the result for `CC(=O)N[C@H]1CCCCNC(=O)C[C@@H](C(=O)N(C)[C@@H](CC(=O)O)C(=O)N[C@H](C(=O)N[C@@H](Cc2ccc(O)cc2)C(=O)N[C@@H](Cc2c[nH]c3ccccc23)C(=O)N[C@@H](CCC(=O)O)C(=O)N[C@@H](Cc2ccc(O)cc2)C(=O)N2CCC[C@H]2C(=O)N[C@H](C(=O)N[C@@H](CCCCNC(CC(C)C)=C2C(=O)CC(C)(C)CC2=O)C(=O)O)C2CCCCC2)C(C)(C)C)NC(=O)[C@H](Cc2ccccc2)NC(=O)[C@H](CCCNC(=N)N)NC(=O)[C@H](CCC(=O)O)NC(=O)[C@H](C(C)C)NC1=O` [Compound R3197, [cyclo(1,6)]Ac-K-V-E-R-F-D-(N—Me)D-Tbg-Y-W-E-Y-P-Chg-K14] reads 4 nM; that for `CCCCCCCCCCCCCCCC(=O)NCCCC[C@H](NC(=O)[C@@H](NC(=O)[C@@H]1CCCN1C(=O)[C@H](Cc1ccc(O)cc1)NC(=O)[C@H](CCC(=O)O)NC(=O)[C@H](Cc1c[nH]c2ncccc12)NC(=O)[C@H](Cc1ccc(O)cc1)NC(=O)[C@@H](NC(=O)[C@H](CC(=O)O)NC(=O)[C@@H]1CSCc2cccc(c2)CSC[C@H](NC(C)=O)C(=O)N[C@@H](C)C(=O)N[C@@H](CCC(=O)O)C(=O)N[C@@H](CCCNC(=N)N)C(=O)N[C@@H](Cc2ccccc2)C(=O)N1)C(C)(C)C)c1ccccc1)C(=O)O` [Compound R3189, [mXylyl(1,6)]Ac-C-A-E-R-F-C-D-Tbg-Y-azaTrp-E-Y-P-Phg-(Lys-C16)], 81.5 nM; that for `CCC[C@H](NC(=O)[C@@H](NC(=O)[C@@H]1CCCN1C(=O)[C@H](Cc1ccc(O)cc1)NC(=O)[C@H](CCC(=O)O)NC(=O)[C@H](Cc1cccc(CN)c1)NC(=O)[C@H](Cc1ccc(O)cc1)NC(=O)[C@@H](NC(=O)[C@H](CC(=O)O)NC(=O)[C@@H]1CSCc2cccc(c2)CSC[C@H](NC(C)=O)C(=O)N[C@@H](C(C)C)C(=O)N[C@@H](CCC(=O)O)C(=O)N[C@@H](CCCNC(=N)N)C(=O)N[C@@H](Cc2ccccc2)C(=O)N1)C(C)(C)C)C1CCCCC1)C(=O)O` [Compound R3181, [mXylyl(1,6)]Ac-C-V-E-R-F-C-D-Tbg-Y-(3-aminomethyl)Phe-E-Y-P-Chg-Nvl], 1500 nM. On the same count and under the same terms, the result for `CCC[C@H](NC(=O)[C@@H](NC(=O)[C@@H]1CCCN1C(=O)[C@H](Cc1ccc2ccccc2c1)NC(=O)[C@H](CCC(=O)O)NC(=O)[C@H](Cc1c[nH]c2ncccc12)NC(=O)[C@H](Cc1ccc(O)cc1)NC(=O)[C@@H](NC(=O)[C@H](CC(=O)O)NC(=O)[C@@H]1CSCc2cccc(c2)CSC[C@H](NC(C)=O)C(=O)N[C@@H](C(C)C)C(=O)N[C@@H](CCC(=O)O)C(=O)N[C@@H](CCCNC(=N)N)C(=O)N[C@@H](Cc2ccccc2)C(=O)N1)C(C)(C)C)C1CCCCC1)C(=O)O` [Compound R3180, [mXylyl(1,6)]Ac-C-V-E-R-F-C-D-Tbg-Y-azaTrp-E-2Nal-P-Chg-Nvl] (Ac-CVERFCD[Tle]Y[Trp(7-aza)]E[2Nal]P[Chg][Nva]-OH; linker 1-6 via mXylylene; C-terminus assumed) reads 29 nM. `CC(=O)N[C@H]1CCCCNC(=O)C[C@@H](C(=O)N(C)[C@@H](CC(=O)O)C(=O)N[C@H](C(=O)N[C@@H](Cc2ccc(O)cc2)C(=O)N[C@@H](Cc2c[nH]c3ccccc23)C(=O)N[C@@H](CCC(=O)O)C(=O)N[C@@H](Cc2ccc(O)cc2)C(=O)N2CCC[C@H]2C(=O)N[C@H](C(=O)N[C@@H](CCCCN)C(=O)O)C2CCCCC2)C(C)(C)C)NC(=O)[C@H](Cc2ccccc2)NC(=O)[C@H](CCCNC(=N)N)NC(=O)[C@H](CCC(=O)O)NC(=O)[C@H](C(C)C)NC1=O` [Compound R3196, [cyclo(1,6)]Ac-K-V-E-R-F-D-(N—Me)D-Tbg-Y-W-E-Y-P-Chg-K] came in with an IC50 of 3 nM. The same measure, in the same setting: next, `CCC[C@H](NC(=O)[C@@H](NC(=O)[C@@H]1CCCN1C(=O)[C@H](CCc1cccc(Cl)c1)NC(=O)[C@H](CCC(=O)O)NC(=O)[C@H](Cc1c[nH]c2ncccc12)NC(=O)[C@H](Cc1ccc(O)cc1)NC(=O)[C@@H](NC(=O)[C@H](CC(=O)O)NC(=O)[C@@H]1CSCc2cccc(c2)CSC[C@H](NC(C)=O)C(=O)N[C@@H](C(C)C)C(=O)N[C@@H](CCC(=O)O)C(=O)N[C@@H](CCCNC(=N)N)C(=O)N[C@@H](Cc2ccccc2)C(=O)N1)C(C)(C)C)C1CCCCC1)C(=O)O` [Compound R3179, [mXylyl(1,6)]Ac-C-V-E-R-F-C-D-Tbg-Y-azaTrp-E-(m-Cl-homo)Phe-P-Chg-Nvl] (Ac-CVERFCD[Tle]Y[Trp(7-aza)]E[hPhe(3-Cl)]P[Chg][Nva]-OH; linker 1-6 via mXylylene; C-terminus assumed): 83 nM; `CCC[C@H](NC(=O)[C@@H](NC(=O)[C@@H]1CCCN1C(=O)[C@H](Cc1ccc(O)cc1)NC(=O)[C@H](CCC(=O)O)NC(=O)[C@H](Cc1c[nH]c2ncccc12)NC(=O)[C@H](Cc1ccc(O)cc1)NC(=O)[C@@H](NC(=O)C1(NC(=O)[C@@H]2CSCc3cccc(c3)CSC[C@H](NC(C)=O)C(=O)N[C@@H](C(C)C)C(=O)N[C@@H](CCC(=O)O)C(=O)N[C@@H](CCCNC(=N)N)C(=O)N[C@@H](Cc3ccccc3)C(=O)N2)CCCC1)C(C)(C)C)C1CCCCC1)C(=O)O` [Compound R3185, [mXylyl(1,6)]Ac-C-V-E-R-F-C-Cle-Tbg-Y-azaTrp-E-Y-P-Chg-Nvl] (Ac-CVERFC[Ac5c][Tle]Y[Trp(7-aza)]EYP[Chg][Nva]-OH; linker 1-6 via mXylylene; C-terminus assumed): 12.5 nM; `CCCCCCCCCCCCCCCC(=O)NCCCC[C@H](NC(=O)[C@@H](NC(=O)[C@@H]1CCCN1C(=O)[C@H](Cc1ccc(O)cc1)NC(=O)[C@H](CCC(=O)O)NC(=O)[C@H](Cc1c[nH]c2ncccc12)NC(=O)[C@H](Cc1ccc(O)cc1)NC(=O)[C@@H](NC(=O)[C@H](CC(=O)O)N(C)C(=O)[C@@H]1CSSCCC(=O)N[C@H](C)C(=O)N[C@@H](CCC(=O)O)C(=O)N[C@@H](CCCNC(=N)N)C(=O)N[C@@H](Cc2ccccc2)C(=O)N1)C(C)(C)C)C1CCCCC1)C(=O)O` [Compound R3199, [cyclo(1,6)](desamino)C-(D-Ala)-E-R-F-C-(N—Me)D-Tbg-Y-azaTrp-E-Y-P-Chg-(Lys-C16)]: 112 nM.
